In ChEMBL document CHEMBL1143705, “Cytotoxic dibromotyrosine-derived metabolites from the sponge Aplysina gerardogreeni” (2007):

Columns and labels:
Assay type in all cases: functional
Conditions in all cases: for CC50: read-out: LC50 (the source's name)
[1] = tested on: MDA-MB-231; assay: Cytotoxicity against human MDA-MB-231 cells by SRB assay
[2] = tested on: HT-29; assay: Cytotoxicity against human HT29 cells by SRB assay
[3] = tested on: A549; assay: Cytotoxicity against human A549 cells by SRB assay

Structure (SMILES)	GI50 [1]	TGI [1]	CC50 [1]	GI50 [2]	TGI [2]	CC50 [2]	GI50 [3]	TGI [3]	CC50 [3]
COC1=C(Br)[C@H](O)[C@@]2(C=C1Br)CC(C(=O)NCCCCNC(=O)C1=NO[C@]3(C=C(Br)C(=O)[C@@H](Br)[C@@H]3O)C1)=NO2 [APLYSINONE D]	3.5 µM	5 µM	7.6 µM	4.1 µM	5.2 µM	11.3 µM	5.7 µM	> 10 µg/mL	> 10 µg/mL
COC1=C(Br)[C@H](O)[C@@]2(C=C1Br)CC(C(=O)NCCCCCNC(=O)C1=NO[C@]3(C=C(Br)C(=O)[C@@H]4O[C@@H]43)C1)=NO2 [APLYSINONE C]	5.6 µM	5.8 µM	6.4 µM	12.6 µM	> 10 µg/mL	> 10 µg/mL	10.7 µM	> 10 µg/mL	> 10 µg/mL
COC1=C(Br)[C@H](O)[C@@]2(C=C1Br)CC(C(=O)NCCCCCNC(=O)C1=NO[C@]3(C=C(Br)C(=O)[C@@H](Br)[C@@H]3O)C1)=NO2 [APLYSINONE A]	3.3 µM	5.4 µM	8.2 µM	2.8 µM	4.8 µM	9.1 µM	4.5 µM	7.1 µM	> 10 µg/mL
O=C(NCCCCCNC(=O)C1=NO[C@]2(C=C(Br)C(=O)[C@@H](Br)[C@@H]2O)C1)C1=NO[C@]2(C=C(Br)C(=O)[C@@H](Br)[C@@H]2O)C1 [APLYSINONE B]	1.6 µM	2.1 µM	3 µM	1.5 µM	2.1 µM	3 µM	2 µM	2.9 µM	4.1 µM
COC1=C(Br)[C@H](O)[C@@]2(C=C1Br)CC(C(=O)NCCCCCNC(=O)C1=NO[C@]3(C=C(Br)C(OC)=C(Br)[C@@H]3O)C1)=NO2 [HOMOAEROTHIONIN]	> 10 µg/mL	> 10 µg/mL	> 10 µg/mL	> 10 µg/mL	> 10 µg/mL	> 10 µg/mL	> 10 µg/mL	> 10 µg/mL	> 10 µg/mL
COC1=C(Br)[C@H](O)[C@@]2(C=C1Br)CC(C(=O)NCCCCNC(=O)C1=NO[C@]3(C=C(Br)C(OC)=C(Br)[C@@H]3O)C1)=NO2 [AEROTHIONIN]	> 10 µg/mL	> 10 µg/mL	> 10 µg/mL	> 10 µg/mL	> 10 µg/mL	> 10 µg/mL	> 10 µg/mL	> 10 µg/mL	> 10 µg/mL
O=C(NCCCCCNC(=O)C1=NO[C@]2(C=C(Br)C(=O)[C@H](Br)[C@@H]2O)C1)C1=NO[C@]2(C=C(Br)C(=O)[C@H](Br)[C@@H]2O)C1	1.7 µM	2.4 µM	3.5 µM	1.6 µM	2.5 µM	3.7 µM	2.4 µM	3.5 µM	5.5 µM
COc1cccc2c1C(=O)c1c(O)c3c(c(O)c1C2=O)C[C@@](O)(C(=O)CO)C[C@@H]3O[C@H]1C[C@H](N)[C@H](O)[C@H](C)O1 [DOXORUBICIN]	0.1 µM	0.3 µM	1.4 µM	0.1 µM	0.3 µM	0.4 µM	0.1 µM	0.2 µM	1 µM
COC1=C(Br)[C@H](O)[C@@]2(C=C1Br)CC(C(=O)NCCCCNC(=O)C1=NO[C@]3(C=C(Br)C(=O)[C@H](Br)[C@@H]3O)C1)=NO2	2.9 µM	4.7 µM	8 µM	3.4 µM	4.9 µM	8.5 µM	5.6 µM	> 10 µg/mL	> 10 µg/mL
COC1=C(Br)[C@H](O)[C@@]2(C=C1Br)CC(C(=O)NCCCCCNC(=O)C1=NO[C@]3(C=C(Br)C(OC)(OC)[C@@H](Br)[C@@H]3O)C1)=NO2	4.2 µM	6 µM	9.6 µM	4.8 µM	> 10 µg/mL	> 10 µg/mL	7.1 µM	> 10 µg/mL	> 10 µg/mL
COC1=C(Br)[C@H](O)[C@@]2(C=C1Br)CC(C(=O)NCCCCCNC(=O)C1=NO[C@]3(C=C(Br)C(=O)[C@H](Br)[C@@H]3O)C1)=NO2	3.5 µM	4.9 µM	6.7 µM	4.8 µM	5 µM	5.4 µM	5.4 µM	8.7 µM	11.2 µM
COC1(OC)C(Br)=C[C@@]2(CC(C(=O)NCCCCCNC(=O)C3=NO[C@]4(C=C(Br)C(OC)(OC)[C@@H](Br)[C@@H]4O)C3)=NO2)[C@@H](O)[C@@H]1Br	> 10 µg/mL	> 10 µg/mL	> 10 µg/mL	> 10 µg/mL	> 10 µg/mL	> 10 µg/mL	> 10 µg/mL	> 10 µg/mL	> 10 µg/mL
